“Also recorded” adds a separate entry of the source.
Columns and labels:
MMP-2 = experiment: Gelatin zymography; format: cell-based, human; conditions: zymogram gel, MDA-MB-231 supernatant
Method: (§1) The activity of the metalloproteases MMP-2 and MMP-9 was assayed using gelatinolytic zymography according to Lambert (Surgery 1997). Briefly, MDA-MB-231 cells were incubated overnight in serum-free medium supplemented with ITS liquid supplement (Sigma) with different concentrations of compound (1, 10, 17.5, 25 and 50 μM). Supematant was collected and concentrated with Ultrafree 30 kDA (Millipore). Equal amount of proteins, as determined by Bradford measurement, were loaded onto a 10% w/v polyacrylamide gel containing 1% gelatin and 0.1% SDS (Novex). After electrophoresis, gels were washed in Novex Zymogram Renaturing buffer for 30 min at room temperature and incubated overnight at 37° C. in Novex Zymogram developing buffer. Gels were stained in Coomassie Brilliant Blue G-250, and the gelatinolytic activity was visualized as a clear band against the blue background of the stained gelatin.

MMP-9 = experiment: Gelatin zymography; format: cell-based, human; conditions: zymogram gel, MDA-MB-231 supernatant
Method: as §1

NIH3T3 = experiment: Cytoskeleton analysis, actin staining; format: cell-based, mouse; set-up: key to Cell architecture modification, actin staining NIH3T3, ruffles (R) / Cell architecture modification, actin staining NIH3T3, focal complexes (FC): a decrease in cellular ruffles density was noted R−; an increase in focal complexes density was noted FC+
Method: (§2) Since major rearrangements of cytoskeleton are observed in tumor cells and since the small GTPases are known to regulate these events, analysis of actin cytoskeleton was performed. Subconfluent cells seeded onto coverslips were treated with different concentration of compound (1, 10, 17.5, 25 and 50 μM) or vehicle for 24 h, before being fixed in 4% formaldehyde for 15 min., permeabilized in 0.2% Triton X100 for 5 minutes and incubated in PowerBlock (Biogenex) for 10 min. Actin filaments were stained with 0.5 μg/ml fluorescein isothiocyanate (FITC)-labelled phalloidin for 1 hour. Analysis was performed using an inverted fluorescent microscope.

MDA231 = experiment: Cytoskeleton analysis, actin staining; format: cell-based, human
Method: as §2

[1] = test system: NIH3T3 cells transfected with RasV12; experiment: Colony formation assay in the presence of constitutively activated Ras (RasV12); format: cell-based, mouse; set-up: key to Colony formation: −: no effect of the compound was observed; +: an effect of the compound was observed; conditions: for Ras-dependent neoR clones formation: NIH3T3, RasV12; for Colony formation: NIH3T3, neoR colonies
Method: c) Ras/Rac-dependant Signaling Pathway Analysis
The impact of the compounds on Ras and Rac signaling pathways was analysed with two reporter systems described by Imler (Nature 1988) and Lin (Science, 1995) respectively on one hand, and by a colony formation assay in the presence of constitutively activated Ras (RasV12) and Rac (RacV12) on the other hand. For this latter experiment, fifty percent confluent NIH3T3 cells in a 10 cm diameter petri dish were transfected with 0.5 μg pSV2-RasV12 or 0.5 μg pEXV RacV12 plasmids plus 100 ng of pSV2-neomycin plasmid using Lipofectamine-Plus reagent (Invitrogen) according to the manufacturer's instructions. Forty-eight hours later, cells were trypsinised, splitted to 1/3, and incubated in the presence of complete medium supplemented with 400 μg/ml geneticin (Invitrogen) and different doses of compound (1, 10, 17.5, 25 and 50 μM) until emerging resistant clones appear (2-3 weeks). The medium was renewed every 3 days. Colonies with a minimum of 50 cells were counted after staining with Fuschin 2%.

HCT116 = experiment: Cytoskeleton analysis, actin staining; format: cell-based, human
Method: as §2

H460 = experiment: Cytoskeleton analysis, actin staining; format: cell-based, human
Method: as §2

MDA-MB-231 cells = experiment: Matrigel invasion assay (Boyden chamber); format: cell-based, human; conditions: MDA-MB-231 cells
Method: d) Migration and Matrigel Invasion Assay
Chemoinvasion assay was performed in Boyden chamber as described by Albini et al (Cancer Res, 1987) with some modifications. Polycarbonate membranes with 8μm pores were coated with matrigel (125 μg/cm^2) at room temperature for 48 h. Two hours before experiments, the matrix was […] with serum-free medium containing 0.1% BSA.
One day after seeding, 10^6 MDA-MB-231 cells were treated overnight with different concentrations of compounds (1, 10, 17.5, 25 and 50 μM). Cells were collected with Versene (Invitrogen), counted with trypan blue exclusion, rinsed twice in serum-free medium containing 0.1% BSA and resuspended in serum-free medium containing 0.1% BSA plus the appropriate concentration of compound. 10^5 treated cells were placed in the upper chamber. Medium containing 10% of FBS plus the appropriate concentration of compound was placed in the lower chamber as a chemoattractant. The Boyden chamber was incubated 6 hours at 37° C. before the cells were fixed and stained with Diff-Quick (Dade-Berhing). Cells on the upper part of the filters were removed using a cotton swab. Cells on the underside of the filters were visualised and counted under light microscope. The migration assay was performed the same way, using non-coated filters.

SMILES | concentration of dose-dependant inhibition of MMP-2 (MMP-2) [µM] | concentration of dose-dependant inhibition of MMP-9 (MMP-9) [µM] | melting point [°C] | Cell architecture modification, actin staining NIH3T3, focal complexes (FC) (NIH3T3) | Cell architecture modification, actin staining NIH3T3, ruffles (R) (NIH3T3) | Cell architecture modification, actin staining MDA231, general observation (MDA231) | Ras-dependent neoR clones formation [1] | Colony formation [1] | Cell architecture modification, actin staining HCT116, general observation (HCT116) | Cell architecture modification, actin staining H460, general observation (H460) | concentration at which an increase in invasive properties was noted (MDA-MB-231 cells) [µM]
CCCc1c(OCCCCCOc2coc(CO)cc2=O)ccc(Cl)c1Cl [EH22900, 5-[5-(3,4-Dichloro-2-propylphenyloxy)pentyloxy]-2-(hydroxymethyl)-4H-pyran-4-one] | 5 | 5 | 85 to 86 | FC+ | R− | increased MDA-MB-231 spreading; also recorded: cell spreading | inhibited | + |  |  | 
CCCc1ccccc1OCCCCCOc1coc(CO)cc1=O [EH18900, 5-[5-(2-Propylphenyloxy)pentyloxy]-2-(hydroxymethyl)-4H-pyran-4-one] |  |  |  | FC+ | R− |  | inhibited | + | cell spreading | cell spreading | 50
C/C=C/c1oc(CO)cc(=O)c1OCCCCCOc1ccc(Cl)c(Cl)c1CCC [EH31101, (E)-3-[5-(3,4-Dichloro-2-propylphenyoxy)pentyloxy]-6-(hydroxymethyl)-2-(propen-1-yl)-4H-pyran-4-one] | 0.1 | 0.1 | 75 to 76 | FC+ | R− |  |  | − |  |  | 10
